Where two headings read alike, the source gives them in different places.
Assays:
[1] = molecular target: T1, HCV NS5B polymerase (His-tagged, C-terminal 21 amino acid deleted NS5B, HC-J4) (Hepatitis C virus genotype 1b, UniProt O92972); assay: NS5b polymerase assay (biochemical RdRp assay, 3H-GTP incorporation, SPA beads); set-up: species or system HCV genotype 1b
T1 construct: The cDNA encoding NS5B amino acid 1-570 (HC-J4, genotype 1b); His tag (His6, from pET-21b) (C); made in house; host or cells: E. coli BL21 (DE3)
Method in brief: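 3H-GTP incorporation into newly made RNA was captured on SPA beads added in EDTA after 2 h at 25 °C. Compounds in DMSO met preformed enzyme–template complex (200 nM truncated His-NS5B, HC-J4 1b; biotin-oligo(rG13)/poly(rC)) for 15 min at RT, then 600 nM GTP, 5 mM MgCl2, Tris pH 7.5 started polymerization.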

[2] = tested on: HCV replicon RNA replication in Huh-7 luc/neo (Huh-Luc) cells; assay: HCV replicon assay (stable replicon cell reporter assay, luciferase read-out); assay type: cell-based, HCV type 1b
Method in brief: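 Three-day compound exposure used Huh-Luc cells, which harbour an autonomously replicating genotype 1b NS3-NS5B replicon expressing luciferase and neo^R. Luciferase signal served as the replication read-out, and dose-response curves came from several concentrations per compound.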

[3] = NS5B Polymerase Assay IC50 (μM)
[4] = Hepatitis C virus, Huh-7, 72 h, read-out: Replicon Assay EC50 (μM), Huh-Luc cells, incubation of three days, luciferase activity
[5] = NS5B Polymerase Assay IC50, 200 nM enzyme, 3H-GTP incorporation, 2 h at 25° C.
[6] = Hepatitis C virus, Huh-7, 72 h, read-out: Replicon Assay EC50, Huh-Luc cells, three days incubation, luciferase activity
[7] = 200 nM enzyme, 3H-GTP incorporation, 2 h at 25° C., read-out: NS5B Polymerase Assay IC50
[8] = Huh-Luc cells, three days incubation, luciferase activity, read-out: Replicon Assay EC50

T1 sequence (O92972 2417-3000, looked up, stated change not applied): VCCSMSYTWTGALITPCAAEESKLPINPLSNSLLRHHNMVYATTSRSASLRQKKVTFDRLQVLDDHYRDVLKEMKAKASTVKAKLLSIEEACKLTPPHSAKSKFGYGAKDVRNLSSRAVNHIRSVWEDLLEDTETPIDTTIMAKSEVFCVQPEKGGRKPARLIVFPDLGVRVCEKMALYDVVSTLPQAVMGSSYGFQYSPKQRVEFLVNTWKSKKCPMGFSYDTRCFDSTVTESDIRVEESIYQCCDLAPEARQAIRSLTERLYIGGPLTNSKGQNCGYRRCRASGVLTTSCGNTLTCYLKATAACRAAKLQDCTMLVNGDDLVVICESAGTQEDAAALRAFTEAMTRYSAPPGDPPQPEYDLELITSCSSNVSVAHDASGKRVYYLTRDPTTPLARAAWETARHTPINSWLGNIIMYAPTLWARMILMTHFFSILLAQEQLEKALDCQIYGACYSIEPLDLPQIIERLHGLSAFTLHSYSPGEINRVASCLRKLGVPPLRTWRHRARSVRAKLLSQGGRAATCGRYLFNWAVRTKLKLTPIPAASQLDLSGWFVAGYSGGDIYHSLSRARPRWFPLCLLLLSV

Structure (SMILES)	IC50 [1, 3]	EC50 [2, 4]	IC50 [1, 5]	EC50 [2, 6]	other results
CC1(C)CC(=O)C2=C(C1)Nc1ccccc1NC2c1ccc(OC(F)(F)F)cc1 (stereo not shown) [compound 434, 11-(4-trifluoromethyloxyphenyl)-3,3-dimethyl-2,3,4,5,10,11-hexahydro-1H-dibenzo[b,e][1,4]diazepin-1-one]	> 133 µM	22.9 µM			
Cc1cccc(C2Nc3ccccc3NC3=C2C(=O)CC(c2ccccc2)C3)c1 (stereo not shown) [compound 354]	> 42.7 µM	20.5 µM			
O=C1CC(c2ccccc2)CC2=C1C(c1ccc(C(F)(F)F)cc1)Nc1ccccc1N2 (stereo not shown) [compound 343]	> 42.7 µM	11 µM			
CCN(CC)c1ccc(C2C3=C(CC(C)(C)CC3=O)Nc3ccccc3N2C(C)=O)cc1 (stereo not shown) [compound 131]			> 42.7 µM	> 32 µM	
CCC(=O)N1c2ccccc2NC2=C(C(=O)CC(C)(C)C2)C1c1ccc(C(F)(F)F)cc1 (stereo not shown) [compound 55]			33.3 µM	> 32 µM	
CC1(C)CC(=O)C2=C(C1)Nc1ccccc1NC2c1ccc(Oc2ccccc2)cc1 (stereo not shown) [compound 435, 11-(4-phenoxyphenyl)-3,3-dimethyl-2,3,4,5,10,11-hexahydro-1H-dibenzo[b,e][1,4]diazepin-1-one]	> 133 µM	6.7 µM			
CCCCOc1ccccc1C1Nc2ccccc2NC2=C1C(=O)CC(c1ccccc1)C2 (stereo not shown) [compound 338]	> 42.7 µM	16.9 µM			
CC1(C)CC(=O)C2=C(C1)Nc1ccccc1NC2c1ccccc1C(=O)O (stereo not shown) [compound 432]	> 42.7 µM	17.7 µM			
CC1(C)CC(=O)C2=C(C1)Nc1ccccc1N(C(=O)Cc1ccccc1)C2c1c(Cl)cccc1Cl (stereo not shown) [compound 16]			> 42.7 µM	10.6 µM	
COc1ccc(OC)c(C2Nc3ccccc3NC3=C2C(=O)CC(c2ccc(OC)c(OC)c2)C3)c1 (stereo not shown) [compound 371]	> 42.7 µM	3.74 µM			
COc1cc(C2Nc3ccccc3NC3=C2C(=O)CC(c2ccc(Cl)cc2)C3)cc(Br)c1O (stereo not shown) [compound 342]	> 42.7 µM	4.19 µM			
CC1(C)CC(=O)C2=C(C1)Nc1ccccc1N(C(=O)c1ccccc1)C2c1cccs1 (stereo not shown) [compound 269]			> 33.3 µM	19.6 µM	
CC(=O)N1c2ccccc2NC2=C(C(=O)CC(c3ccccc3OCc3ccccc3)C2)C1c1cccc(OC(=O)c2ccc(Cl)cc2)c1 (single isomer, unassigned) [compound 192, 10-Acetyl-3-(2-benzyloxyphenyl)-11-[3-(4-chlorobenzoyloxy)phenyl]-2,3,4,5,10,11-hexahydro-dibenzo[b,e][1,4]diazepin-1-one]					IC50 ([1]; read-out: NS5B Polymerase Assay IC50, 200 nM enzyme, 3H-GTP incorporation, 2 h at 25° C.): > 42.7 µM; EC50 ([2]; read-out: Replicon Assay EC50, Huh-Luc cells, three days incubation, luciferase activity): 4.87 µM
CC(C)C(=O)N1c2ccccc2NC2=C(C(=O)CC(C)(C)C2)C1c1ccccc1F (stereo not shown) [compound 23]			> 42.7 µM	20.3 µM	
COc1ccc(C2CC(=O)C3=C(C2)Nc2ccccc2N(C(C)=O)C3c2cccc([N+](=O)[O-])c2)cc1OC (stereo not shown) [compound 172]					IC50 [1, 7]: > 42.7 µM; EC50 [2, 8]: 11.3 µM
COc1c(Cl)cc(Cl)cc1C1C2=C(CC(C)(C)CC2=O)Nc2ccccc2N1C(=O)C(F)(F)F (stereo not shown) [compound 116]			> 42.7 µM	> 32 µM	
COc1ccc(C2C3=C(CC(c4cccc([N+](=O)[O-])c4)CC3=O)Nc3ccccc3N2C(C)=O)cc1OC (mixture of isomers) [compound 180]					IC50 [1, 7]: > 42.7 µM; EC50 [2, 8]: 11.8 µM
CC(=O)N1c2ccccc2NC2=C(C(=O)CC(C)(C)C2)C1c1ccc(OCc2ccccn2)cc1 (stereo not shown) [compound 141, 10-acetyl-3,3-dimethyl-11-[4-(2-pyridylmethoxy)phenyl]-2,3,4,5,10,11-hexahydro-1H-dibenzo[b,e][1,4]diazepin-1-one]			7.91 µM	16.3 µM	
CC1(C)CC(=O)C2=C(C1)Nc1ccccc1N(C(=O)C(F)(F)F)C2/C=C/c1ccccc1 (racemic) [compound 244]			> 33.3 µM	15.9 µM	
O=C1CC(c2ccc(Cl)cc2)CC2=C1C(c1ccc(Cl)c(Cl)c1)Nc1ccccc1N2 (stereo not shown) [compound 355]	> 42.7 µM	5.48 µM			
COc1ccc(C2CC(=O)C3=C(C2)Nc2ccccc2NC3c2ccc(C)c([N+](=O)[O-])c2)cc1 (stereo not shown) [compound 359]	> 42.7 µM	7.33 µM			

Structure (SMILES)	IC50 [1, 3]	EC50 [2, 4]	IC50 [1, 5]	EC50 [2, 6]	other results
CC1(C)CC(=O)C2=C(C1)Nc1ccccc1N(C(=O)c1ccccc1)C2c1ccc([N+](=O)[O-])cc1 (stereo not shown) [compound 13]			> 42.7 µM	20.4 µM	
CCC(C)Oc1ccccc1C1C2=C(CC(C)(C)CC2=O)Nc2ccccc2N1C(=O)C(F)(F)F (stereo not shown) [compound 65]			> 42.7 µM	2.48 µM	
O=C1CC(c2ccco2)CC2=C1C(c1ccco1)N(C(=O)C(F)(F)F)c1ccccc1N2 (stereo not shown) [compound 297]			> 42.7 µM	23.6 µM	
CCOc1ccc(C2C3=C(CC(C)(C)CC3=O)Nc3ccccc3N2C(C)=O)cc1 (stereo not shown) [compound 57]			> 42.7 µM	4.47 µM	
COc1ccc(C2CC(=O)C3=C(C2)Nc2ccccc2NC3c2ccccc2Cl)cc1 (stereo not shown) [compound 383]	> 42.7 µM	17.3 µM			
CCCCCC(=O)N1c2ccccc2NC2=C(C(=O)CC(c3ccc(C)cc3)C2)C1c1ccccc1Cl (mixture of isomers) [compound 182]					IC50 [1, 7]: > 42.7 µM; EC50 [2, 8]: 1.82 µM
COc1ccc(C2C3=C(CC(C)(C)CC3=O)Nc3ccccc3N2C(=O)CSc2nc3ccccc3s2)cc1 (stereo not shown) [compound 21]			> 42.7 µM	14.2 µM	
Cc1ccc(C2CC(=O)C3=C(C2)Nc2ccccc2N(C(=O)CCC(=O)O)C3c2ccc(C)cc2)cc1 (stereo not shown) [compound 161]			29.9 µM	> 25 µM	
CC1(C)CC(=O)C2=C(C1)Nc1ccccc1NC2c1ccc(O)cc1 (stereo not shown) [compound 440, 3,3-dimethyl-11-(4-hydroxyphenyl)-2,3,4,5,10,11-hexahydro-1H-dibenzo[b,e][1,4]diazepin-1-one]	> 133 µM	> 100 µM			
CC(=O)N1c2cccc(Br)c2NC2=C(C(=O)CC(C)(C)C2)C1c1ccc(Cl)cc1Cl (stereo not shown) [compound 312]			6.11 µM	7.81 µM	
CCCCC(CC)C(=O)N1c2ccccc2NC2=C(C(=O)CC(C)(C)C2)C1c1ccc(OCCC)c(OC)c1 (stereo not shown) [compound 98]			> 42.7 µM	7.33 µM	
CCCOc1ccc(C2C3=C(CC(C)(C)CC3=O)Nc3ccccc3N2C(C)=O)cc1OC (stereo not shown) [compound 129]			> 42.7 µM	> 32 µM	
CCCCCOc1ccc(C2C3=C(CC(C)(C)CC3=O)Nc3ccccc3N2C(=O)c2ccccc2F)cc1 (stereo not shown) [compound 67]			> 42.7 µM	5.67 µM	
CC1(C)CC(=O)C2=C(C1)Nc1ccccc1N(C(=O)C(F)(F)F)C2c1cccs1 (stereo not shown) [compound 267]			> 42.7 µM	9.39 µM	
CC1(C)CC(=O)C2=C(C1)Nc1ccccc1NC2c1cccc(OC(=O)c2ccc(Cl)cc2)c1 (stereo not shown) [compound 431, 11-[3-(4-Chlorobenzoyloxy)phenyl]-3,3-dimethyl-2,3,4,5,10,11-hexahydro-dibenzo[b,e][1,4]diazepin-1-one]	82.9 µM	> 100 µM			
COc1ccc(C2C3=C(CC(C)(C)CC3=O)Nc3ccccc3N2C(=O)c2ccc(Cl)cc2)cc1OC (stereo not shown) [compound 68]			> 42.7 µM	23.1 µM	
CCN1c2ccccc2NC2=C(C(=O)CC(C)(C)C2)C1c1ccc(Cl)cc1Cl (stereo not shown) [compound 508, 11-(2,4-dichlorophenyl)-10-ethyl-2,3,4,5,10,11-hexahydro-3,3-dimethyl1H-dibenzo[b,e][1,4]diazepin-1-one]	> 42.7 µM	1.37 µM			
CCC(=O)N1c2ccccc2NC2=C(C(=O)CC(c3ccc(C)cc3)C2)C1c1cccc(Cl)c1 (mixture of isomers) [compound 195]					IC50 [1, 7]: > 33.3 µM; EC50 [2, 8]: 6.9 µM
CN(C)c1ccc(C2C3=C(CC(C)(C)CC3=O)Nc3ccccc3N2C(=O)C(F)(F)F)cc1 (stereo not shown) [compound 108]			> 42.7 µM	> 32 µM	
CC1(C)CC(=O)C2=C(C1)Nc1ccccc1N(C(=O)Cc1ccccc1)C2c1cccc(O)c1 (stereo not shown) [compound 39]			> 42.7 µM	7.42 µM	

Source: US20090221559A1 (priority 2005, published 2009)
